The text below walks through data of paper PMC5827532, “Triphenylphosphonium Moiety Modulates Proteolytic Stability and Potentiates Neuroprotective Activity of Antioxidant Tetrapeptides in Vitro” (Frontiers in Pharmacology, 2018).

Structures are written as SMILES. Read-outs that look alike come from different tables or passages of the source.

Data set [1] concerns PC-12 cells. The method, then:
(§1) PC-12 cells were subjected to oxidative damage by CoCl2, L-glutamic acid, or menadione and treated with the oligopeptides as follows. Briefly, the pre-grown cells were seeded in a 96-well plate at a density of 60 000 cells per well and cultured overnight in FBS-containing α-MEM. Next day, the medium was replaced by a fresh one without FBS, and further manipulations were performed in FBS-free medium. The oxidative agents and oligopeptides were supplemented to the medium in three ways: (i) the cells were pre-cultured in the presence of oligopeptides for 24 h, then the medium was replaced by a fresh one supplemented with a damaging factor and the cells were further cultured with the factor for 24 h (CoCl2, L-glutamic acid) or 3 h (menadione) (‘pretreatment’); (ii) the damaging factor and oligopeptide were added together to cells and cultured for 24 h (CoCl2, L-glutamic acid) or 3 h (menadione) followed by medium replacement (‘cotreatment’); (iii) following treatment with menadione, the cells were additionally cultured with the oligopeptides for 24 h (‘posttreatment’). The concentration of compounds was as follows: oligopeptides 5 mM, CoCl2 2.5 mM, L-glutamic acid 50 mM, menadione 25 μM.
(§2) Eventually, viability of the treated cells was evaluated with the use of MTS assay (Promega) on an Infinite M200 PRO microplate analyzer (TECAN). The cell viability was presented as a percentage of that of the control cells cultured in the absence of compounds (100% viability).

Data set [2] relates to prostate cancer (PC-3) cells. To be noted: same supplementation; ref Akhmadishina et al., 2017; cited from earlier work.
For data set [3] the following is noted: same reaction; ref Akhmadishina et al., 2017; cited from earlier work.
The subject of data set [4] is PC-12 cells. Put plainly: Cytoprotection against L-glutamic acid-induced damage (MTS assay). The note with it: 50 mM LGlu. The procedure:
as §1, §2
(Tetrazolium assays rely on reduction of a dye to a coloured formazan, in cell work by metabolically active cells.)

Data set [5] has as its system PC-12 cells. As to the kind of experiment: Cytoprotection against menadione-induced damage (MTS assay). To be noted: for protective effect: pretreatment 24 h, 5 mM, menadione 25 μM. The method, then: (§3) PC-12 cells were subjected to oxidative damage by CoCl2, L-glutamic acid, or menadione and treated with the oligopeptides as follows. Briefly, the pre-grown cells were seeded in a 96-well plate at a density of 60 000 cells per well and cultured overnight in FBS-containing α-MEM. Next day, the medium was replaced by a fresh one without FBS, and further manipulations were performed in FBS-free medium.
as §2

The test system of data set [6] is PC-12 cells. As to the kind of experiment: H2O2-induced oxidative stress in cells (DCFDA fluorescence). Type of data set: cell-based, rat. To be noted: 5 mM, 1 h, 100 mM H2O2, HBSS. The procedure:
PC-12 cells were seeded in a 96-well plate and allowed to form a subconfluent monolayer. The cells were washed with Hank’s balanced salt solution (HBSS), pre-stained with 20 μM DCFDA and rewashed with HBSS two times. The oxidative stress in the stained cells was induced by incubating them in HBSS solution containing 100 mM H2O2 for 1 h in CO2-incubator. The synthesized oligopeptides or glutathione were added to the extracellular solution in the concentration range from 1 to 10 mM in HBSS and incubated for 1 h. The bottom fluorescent signal was acquired from the treated cells on an Infinite M200PRO microplate analyzer (TECAN) at λex = 488 nm and λem = 535 nm.

Data set [7] can be described thus: Cytoprotection against menadione-induced damage (MTS assay). The note with it: rat, PC-12 cells. The method, then:
as §3, §2

The target in data set [8] is T1, trypsin (Sus scrofa, UniProt P00761).
T1 construct: purchased PanEco company (Russia); host or cells: porcine pancreas
T1 sequence (P00761 9-231): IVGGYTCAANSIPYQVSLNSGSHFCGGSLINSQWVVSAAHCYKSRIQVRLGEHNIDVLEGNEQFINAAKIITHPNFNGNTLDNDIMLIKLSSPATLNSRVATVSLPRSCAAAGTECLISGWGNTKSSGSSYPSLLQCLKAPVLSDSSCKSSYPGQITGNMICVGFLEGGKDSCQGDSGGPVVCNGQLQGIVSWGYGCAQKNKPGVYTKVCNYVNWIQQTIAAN
As to the kind of experiment: Tryptic cleavage of oligopeptides followed by reversed-phase HPLC. Type of data set: in vitro ADME, porcine. The note with it: trypsin 5 μg/mL, PBS pH 7.4; for half-life at 0.5 mg/mL: pig, oligopeptide 0.5 mg/mL, read-out: 50% degradation rate (DR50). The method, then:
The reaction mixture containing an oligopeptide (0.5 mg/mL) and trypsin (5 μg/mL) in phosphate buffered saline (PBS, pH 7.4) was incubated for different time intervals, and aliquots of digestion products were collected for reversed-phase high-performance liquid chromatography (HPLC). HPLC analysis was carried out on a Dionex UltiMate 3000 system (Thermo Scientific) using a Kromasil C18 column, 5 μm, 4.6 mm × 150 mm (AkzoNobel). Mobile phase contained (A) acetonitrile with 0.1% trifluoroacetic acid, (B) milli-Q water with 0.1% trifluoroacetic acid. Gradient scheme was as follows, 0–10 min: from 100% A to 100% B, 10–20 min: 100% A to 100% B, 20–25 min: 100% B. Flow rate was 0.5 mL/min; injection volume was 10 μL. The detection was performed at wavelengths of 220 and 260 nm. Chromatographic data were collected and treated with the aid of Chromeleon 6.80 software (Thermo Scientific). Peak height of the uncleaved oligopeptides was measured to calculate remaining concentration of the oligopeptides after tryptic cleavage. Concentration values were presented as mean ± SD (n = 3).
Enzymatic cleavage of the oligopeptides was performed in PBS solution using pancreatic trypsin as a pharmacologically relevant endopeptidase ([Vlieghe et al., 2010]; [Danial et al., 2012]). To compare proteolytic resistance of the initial and TPP-modified oligopeptides, the reaction conditions were optimized to provide a relatively slow kinetics. The concentration of uncleaved oligopeptides was detected by means of HPLC. In the absence of trypsin, both the unmodified tetrapeptides and TPP derivatives were stable during at least 48 h incubation at ambient temperature.

Data set [9] concerns PC-12 cells. As to the kind of experiment: MTT proliferation (cytotoxicity) assay. It counts as cell-based, rat. The note with it: over the whole concentration range (1 μM to 3.2 mM). The method, then: (§4) PC-12 rat pheochromocytoma cell line (ATTC) and human skin fibroblasts (HSF) were used. HSF were isolated as detailed in ([Tsepaeva et al., 2017]). The cells were cultured aseptically in α-MEM containing 10% fetal bovine serum (FBS), 2 mM L-glutamine, 100 U/mL penicillin and 100 μg/mL streptomycin at 37°C in humidified air atmosphere with 5% CO2.
(§5) The cytotoxicity of the oligopeptides was evaluated in the concentration range from 1 μM to 3.2 mM by means of the MTT proliferation assay in 96-well microplates as described in [Tsepaeva et al. (2017)]. The cell viability was presented as a percentage of control cells grown without compounds (100% viability value). Half-maximal inhibitory concentrations (IC50) were calculated from cell viability curves using OriginPro 8.0 software.

A short description of data set [10]: Fenton-like CoCl2/H2O2 reaction, ROS detected with DCFDA probe. The procedure:
Fenton-like reaction was initiated by mixing 0.2 mM cobalt chloride (CoCl2) and 22 mM hydrogen peroxide (H2O2) in PBS and carried out for 60 min in the presence of or without a serially diluted oligopeptide. ROS generated in the Fenton reaction were detected by using DCFDA fluorescent probe (5 μM) at λex = 488 nm and λem = 535 nm. The effect of oligopeptides was measured as a percentage of ROS generation rate in the control reaction without effectors (100%) ([Akhmadishina et al., 2017]).

Data set [11] in a line: Dynamic light scattering. The note with it: data not shown. It counts as physicochemical.
Data set [12] relates to human skin fibroblasts (HSF). As to the kind of experiment: MTT proliferation (cytotoxicity) assay. It counts as cell-based. The method, then:
as §4, §5

Data set [13] is described as follows: Cytoprotection against L-glutamic acid-induced damage (MTS assay). The note with it: rat. The procedure: as §1, §2

As for `[Cl-].[Cl-].[Co+2]` [CoCl2, cobalt (II) chloride], the “cell viability, damaging factor alone” value in data set [1] (CoCl2 2.5 mM, 24 h) is listed as 55%.
For `N[C@@H](CCC(=O)N[C@@H](CS)C(=O)NCC(=O)O)C(=O)O` [GSH, γ-Glu-Cys-Gly], the “effect on cell damage” value in [1] (cotreatment, 5 mM, CoCl2 2.5 mM) was “insignificantly diminished cell damage”. Besides, the protective effect entry is on record as “did not exhibit a protective effect” in data set [1] (pretreatment 24 h, 5 mM, CoCl2 2.5 mM); “relatively low protective effect” in [4] (5 mM); “not when applied prior to the treatment” in data set [5]. Also, in [2], the effect on proliferation result is recorded as “greatly stimulated proliferation”. Also, the EC50 in [3] was 544 ± 39 µM. In data set [5] (Rattus norvegicus, PC-12, 24 h, read-out: cell viability), the viability – broadly, a read-out of living cells in per cent, often relative to untreated cells – at 5000 µM stood at 32%. The “effect on DCFDA signal” value in data set [6] is given as “almost completely decreased the signal”.
For `CC1=CC(=O)c2ccccc2C1=O` [Men, menadione], the viability at 3 h, 25 μM in [7] is about 17%.
As to `N=C(N)NCCC[C@H](NC(=O)[C@H](Cc1ccc(O)cc1)NC(=O)CC[P+](c1ccccc1)(c1ccccc1)c1ccccc1)C(=O)N[C@@H](Cc1ccccc1)C(=O)N[C@@H](CCCCN)C(N)=O` [TPP-3-YRFK-NH2], the half-life at 0.5 mg/mL in data set [8] (pancreatic trypsin in PBS) is about 0.767 h. The “extent of cleavage before plateau” value in data set [8] is recorded as about 80%.
Turning to `N=C(N)NCCC[C@H](NC(=O)[C@H](Cc1ccc(O)cc1)NC(=O)CCCCC[P+](c1ccccc1)(c1ccccc1)c1ccccc1)C(=O)N[C@@H](Cc1ccccc1)C(=O)N[C@@H](CCCCN)C(N)=O` [TPP-6-YRFK-NH2], the cell viability (in general, a read-out of living cells in per cent, often relative to untreated cells) in data set [1] (rat) is reported as about 126%. The increase of proliferation entry in data set [9] is given as “up to 20%”. Further, in [10] (0.2 mM CoCl2, 22 mM H2O2, PBS), the “concentrations at which the inhibitory effect toward the reaction was observed” value was over 250 µM. The EC50 in data set [10] (ROS generation in CoCl2/H2O2 reaction, read-out: half-maximal inhibitory concentration (EC50)) was 500 ± 25 µM. Moreover, the aggregative properties entry in [11] is “formed well-defined submicron aggregates”. Moreover, the half-life at 0.5 mg/mL in [8] (pancreatic trypsin in PBS) was about 1.17 h. Further, the “time during which cleavage was initially retarded” value in data set [8] is on record as “approximately 60 min”. Besides, the “concentration at which cell proliferation was decreased” value in data set [12] (effect disappeared in lower and higher concentration ranges) is “around 100 μM”.
Regarding `N=C(N)NCCC[C@@H](NC(=O)[C@H](Cc1ccc(O)cc1)NC(=O)CCCCC[P+](c1ccccc1)(c1ccccc1)c1ccccc1)C(=O)N[C@@H](Cc1ccccc1)C(=O)N[C@@H](CCCCN)C(N)=O` [TPP-6-YrFK-NH2], the aggregative properties result in data set [11] is “formed well-defined submicron aggregates”. The protective effect entry is reported as “completely prevented cell damage” in data set [4] (pretreatment, supplemented 24 h prior to damage) and “effectively prevented cell damage” in data set [5]. The “reaction time without any degradation” value in data set [8] is on record as “at least 17 h”. In addition, the “half-maximal inhibition of proliferation” value in [12] (MTT, 3 days) is “millimolar concentrations”.
Turning to `N=C(N)NCCC[C@H](NC(=O)[C@@H](N)Cc1ccc(O)cc1)C(=O)N[C@@H](Cc1ccccc1)C(=O)N[C@@H](CCCCN)C(N)=O` [YRFK-NH2], the half-life at 0.5 mg/mL in [8] (isolated enzyme trypsin) is about 6.17 h.
As for `NCCCC[C@H](NC(=O)[C@H](Cc1ccccc1)NC(=O)[C@@H](CCCN=C(N)N)NC(=O)[C@@H](N)Cc1ccc(O)cc1)C(N)=O` [YrFK-NH2], the half-life at 0.5 mg/mL in data set [8] (isolated enzyme trypsin) is about 14.6 h.
As for `N[C@@H](CCC(=O)O)C(=O)O` [^LGlu, L-glutamic acid], in data set [13], the viability at 24 h, 50 mM was 37.1%.
